Results on 42 compounds are retold here after US20250388584A1, “TPK AGONIST AND METHOD FOR TREATING NEURODEGENERATIVE DISEASES USING SAME” (SHANGHAI RAISING PHARMACEUTICAL CO., LTD., priority 2022, published 2025).

The experiment has as its target TPK enzyme (Homo sapiens (Human), UniProt Q9H3S4). In words: TPK enzyme activity test. It is filed as biochemical. The note with it: for Emax: calculated with the effect of DMSO on TPK enzyme activity as 100%; for EC50: promoting effect on TPK enzyme activity.

Where two headings read alike, the source gives them in different places.

Chain of TPK enzyme (Q9H3S4 whole entry): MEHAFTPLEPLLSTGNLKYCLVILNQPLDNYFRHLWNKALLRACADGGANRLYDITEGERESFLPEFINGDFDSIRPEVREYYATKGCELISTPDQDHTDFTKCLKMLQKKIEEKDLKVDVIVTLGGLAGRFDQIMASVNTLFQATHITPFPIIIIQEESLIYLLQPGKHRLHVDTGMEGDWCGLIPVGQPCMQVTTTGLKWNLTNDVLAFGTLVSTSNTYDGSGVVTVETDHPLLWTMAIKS

In the case of `Cc1ccc2[nH]c3c(=O)n(CCC(=O)N4CCN(c5cccc(C(=O)O)c5)CC4)cnc3c2c1` [Compound 27, 3-(4-(3-(8-methyl-4-oxo-4,5-dihydro-3H-pyrimido[5,4-b]indol-3-yl)propanoyl)piperazin-1-yl)benzoic Acid], the maximum response (Emax) (read-out: Emax) is 122%.
With `Cc1ccc2[nH]c3c(=O)n(CCC(=O)N4CCN(c5cccc(C(N)=O)c5)CC4)cnc3c2c1` [Compound 28, 3-(4-(3-(8-methyl-4-oxo-4,5-dihydro-3H-pyrimido[5,4-b]indol-3-yl)propanoyl)piperazin-1-yl)benzamide], where the note is “read-out: Emax”, the maximal response (Emax) was 124%.
Consider `Cc1ccc(N2CCN(C(=O)CCn3cnc4c([nH]c5ccc(C)cc54)c3=O)CC2)c(C)c1` [Compound 31], for which the half-maximal effective concentration (EC50) worked out at 1210 nM. In addition, the Emax (read-out: Emax) is 151%.
Turning to `Cc1ccc2[nH]c3c(=O)n(CCC(=O)N4CCN(c5ccccc5)CC4)cnc3c2c1` [Compound 32], where the note is “read-out: Emax”, the Emax was 123%.
Still for that read-out and setting: next, `Cc1ccc2[nH]c3c(=O)n(CCC(=O)N4CCN(c5ccc(F)cc5)CC4)cnc3c2c1` [Compound 33]: 123%.
The compound `Cc1ccc(C)c(N2CCN(C(=O)CCn3cnc4c([nH]c5ccc(C)cc54)c3=O)CC2)c1` [Compound 34] had a concentration giving a half-maximal response (EC50) of 1370 nM. The Emax (read-out: Emax) was 167%.
In the case of `CC(=O)c1ccc(N2CCN(C(=O)CCn3cnc4c([nH]c5ccc(C)cc54)c3=O)CC2)cc1` [Compound 35], under “read-out: Emax”, the Emax is 126%.
In the case of `Cc1cccc(N2CCN(C(=O)CCn3cnc4c([nH]c5ccc(C)cc54)c3=O)CC2)c1` [Compound 38], for the setting “read-out: Emax”, the Emax was 145%.
For `O=C(CCn1cnc2c([nH]c3ccc(F)cc32)c1=O)N1CCN(c2cccc(C(F)(F)F)c2)CC1` [Compound 39], the maximal effect (Emax) (read-out: Emax) is 139%.
As for `Cc1ccc2[nH]c3c(=O)n(CCC(=O)N4CCN(c5ccccc5F)CC4)cnc3c2c1` [Compound 40], the Emax (read-out: Emax) was 125%.
On to `Cc1ccc2[nH]c3c(=O)n(CC(=O)N4CCN(c5cccc(C(F)(F)F)c5)CC4)cnc3c2c1` [Compound 41], for which, where the note is “read-out: Emax”, the maximal response (Emax) is 141%.
Compound `Cc1ccc2[nH]c3c(=O)n(CCC(=O)N4CCN(c5cc(Cl)ccc5C)CC4)cnc3c2c1` [Compound 42] registered an EC50 of 3960 nM. In addition, the maximal effect (Emax) (read-out: Emax) is 156%.
Take `COc1cccc(N2CCN(C(=O)CCn3cnc4c([nH]c5ccc(C)cc54)c3=O)CC2)c1` [Compound 43]: the maximum response (Emax) (read-out: Emax) is 137%.
Consider `Cc1ccc2[nH]c3c(=O)n(CCC(=O)N4CCN(c5cccc(C)c5C)CC4)cnc3c2c1` [Compound 44], for which the EC50 came to 3300 nM. Also, the maximal effect (Emax) (read-out: Emax) is 152%.
Take `COc1cccc(N2CCN(C(=O)Cn3cnc4c([nH]c5ccc(C)cc54)c3=O)CC2)c1` [Compound 45]: the EC50 is 1220 nM. Moreover, the Emax (read-out: Emax) is 158%.
In the case of `Cc1ccc2[nH]c3c(=O)n(CCC(=O)N4CCN(c5ccc(F)cc5)CC4)cnc3c2c1` [Compound 46], the maximal response (Emax) is on record as 122.50%.
With `COc1ccccc1N1CCN(C(=O)CCn2cnc3c([nH]c4ccc(C)cc43)c2=O)CC1` [Compound 47], under “read-out: Emax”, the Emax was 135%.
On the same count and under the same terms, as for `Cc1ccc2[nH]c3c(=O)n(CCCN4CCN(c5cccc(C(F)(F)F)c5)CC4)cnc3c2c1` [Compound 49, 8-methyl-3-(3-(4-(3-(trifluoromethyl)phenyl)piperazin-1-yl)propyl)-3,5-dihydro-4H-pyrimido[5,4-b]indol-4-one], the figure is 136%.
On to `O=C(CCn1cnc2c([nH]c3ccc(C(F)(F)F)cc32)c1=O)N1CCN(Cc2cccc(C(F)(F)F)c2)CC1` [Compound 53, 3-(3-oxo-3-(4-(3-(trifluoromethyl)benzyl)piperazin-1-yl)propyl)-8-(trifluoromethyl)-3,5-dihydro-4H-pyrimido[5,4-b]indol-4-one], for which a half-maximal response (EC50) required 1580 nM. In addition, the Emax (read-out: Emax) was 162%.
The compound `O=C(CCn1cnc2c([nH]c3ccc(C(F)(F)F)cc32)c1=O)N1CCN(Cc2cc(F)c(F)c(F)c2)CC1` [Compound 54, 3-(3-oxo-3-(4-(3,4,5-trifluorobenzyl)piperazin-1-yl)propyl)-8-(trifluoromethyl)-3,5-dihydro-4H-pyrimido[5,4-b]indol-4-one] yielded a half-maximal effective concentration (EC50) of 1680 nM. For the same compound, under “read-out: Emax”, the Emax is 170%.
In turn, `Cc1ccc2[nH]c3c(=O)n(CC(=O)NCCCN4CCN(Cc5ccccc5)CC4)ncc3c2c1` [Compound 55] showed an EC50 of 10600 nM. Also, under “read-out: Emax”, the maximal response (Emax) was 159%.
`Cc1ccc2oc3c(=O)n(CCC(=O)N4CCN(c5cccc(C(F)(F)F)c5)CC4)cnc3c2c1` [Compound 57, 8-methyl-3-(3-oxo-3-(4-(3-(trifluoromethyl)phenyl)piperazin-1-yl)propyl)benzofuro[3,2-d]pyrimidin-4(3H)-one]: a half-maximal response (EC50) required 1190 nM. Further, the Emax (read-out: Emax) is 159%.
`O=C(Cn1cnc2c(oc3ccccc32)c1=O)N1CCN(c2cccc(C(F)(F)F)c2)CC1` [Compound 58]: the maximal effect (Emax) (read-out: Emax) was 147%.
Take `Cc1ccc2[nH]c3c(=O)n(CCC(=O)N4CCN(c5cccc(C(F)(F)F)c5)CC4)ccc3c2c1` [Compound 59, 6-methyl-2-(3-oxo-3-(4-(3-(trifluoromethyl)phenyl)piperazin-1-yl)propyl)-2,9-dihydro-1H-pyrido[3,4-b]indol-1-one]: the EC50 is 1380 nM. Besides, the maximal effect (Emax) (read-out: Emax) is 190%.
The compound `Cc1ccc2[nH]c3c(=O)n(CCC(=O)N4CCN(c5cccc(C(F)(F)F)c5)CC4)cnc3c2c1` [Compound 61] registered a half-maximal effective concentration (EC50) of 1210 nM. Moreover, for the setting “read-out: Emax”, the maximal response (Emax) is 172%.
As for `Cc1ccc2[nH]c3c(=O)n(CC(=O)N4CCN(c5ccc(F)cc5)CC4)cnc3c2c1` [Compound 63], the Emax (read-out: Emax) was 148%.
With `Cc1ccc2[nH]c3c(=O)n(CCC(=O)NCc4cc(C(F)(F)F)cc(C(F)(F)F)c4)cnc3c2c1` [Compound 66, N-(3,5-bis(trifluoromethyl)benzyl)-3-(8-methyl-4-oxo-4,5-dihydro-3H-pyrimido[5,4-b]indol-3-yl)propanamide], the Emax (read-out: Emax) is 138%.
As to `Cc1ccc2[nH]c3c(=O)n(CCC(=O)NCc4cccc(C(F)(F)F)c4)ccc3c2c1` [Compound 67, 3-(6-methyl-1-oxo-1,9-dihydro-2H-pyrido[3,4-b]indol-2-yl)-N-(3-(trifluoromethyl)benzyl)propanamide], the concentration giving a half-maximal response (EC50) was found to be 1200 nM. Besides, the Emax (read-out: Emax) is 187%.
With `Cc1ccc2[nH]c3c(=O)n(CCC(=O)NCCCc4cccc(C(F)(F)F)c4)cnc3c2c1` [Compound 69, 3-(8-methyl-4-oxo-4,5-dihydro-3H-pyrimido[5,4-b]indol-3-yl)-N-(3-(3-(trifluoromethyl)phenyl)propyl)propanamide], under “read-out: Emax”, the Emax was 168%.
Still for that read-out and setting: next, `O=C(CCn1cnc2c([nH]c3ccc(C(F)(F)F)cc32)c1=O)NCc1cccc(C(F)(F)F)c1` [Compound 71, 3-(4-oxo-8-(trifluoromethyl)-4,5-dihydro-3H-pyrimido[5,4-b]indol-3-yl)-N-(3-(trifluoromethyl)benzyl)propanamide]: 142%.
Consider `Cc1ccc2[nH]c3c(=O)n(CCNC(=O)Cc4cccc(C(F)(F)F)c4)cnc3c2c1` [Compound 72, N-(2-(8-methyl-4-oxo-4,5-dihydro-3H-pyrimido[5,4-b]indol-3-yl)ethyl)-2-(3-(trifluoromethyl)phenyl)acetamide], for which the maximum response (Emax) (read-out: Emax) is 122%.
For the compound `Cc1cccc2[nH]c3c(=O)n(CCC(=O)NCc4cccc(C(F)(F)F)c4)cnc3c12` [Compound 77, 3-(9-methyl-4-oxo-4,5-dihydro-3H-pyrimido[5,4-b]indol-3-yl)-N-(3-(trifluoromethyl)benzyl)propanamide], the maximal response (Emax) (read-out: Emax) was 122%.
`COc1cccc(CNC(=O)CCn2cnc3c([nH]c4ccc(C)cc43)c2=O)c1` [Compound 81]: for the setting “read-out: Emax”, the Emax is 123%.
Turning to `Cc1ccc2[nH]c3c(=O)n(CCC(=O)NCc4cccc(O)c4)cnc3c2c1` [Compound 82, N-(3-hydroxybenzyl)-3-(8-methyl-4-oxo-4,5-dihydro-3H-pyrimido[5,4-b]indol-3-yl)propanamide], for the setting “read-out: Emax”, the maximal response (Emax) is 123%.
As for `COC(=O)c1cccc(CNC(=O)CCn2cnc3c([nH]c4ccc(C)cc43)c2=O)c1` [Compound 83, methyl 3-((3-(8-methyl-4-oxo-4,5-dihydro-3H-pyrimido[5,4-b]indol-3-yl)propanamido)methyl)benzoate], the maximum response (Emax) (read-out: Emax) is 126%.
Regarding `Cc1ccc2oc3c(=O)n(CCC(=O)NCc4cccc(C(F)(F)F)c4)cnc3c2c1` [Compound 87, 3-(8-methyl-4-oxobenzofuro[3,2-d]pyrimidin-3(4H)-yl)-N-(3-(trifluoromethyl)benzyl)propanamide], under “read-out: Emax”, the Emax is 146%.
As for `Cc1ccc2[nH]c3c(=O)n(CCC(=O)NCc4cccc(S(N)(=O)=O)c4)cnc3c2c1` [Compound 88], the Emax (read-out: Emax) was 124%.
`Cc1ccc2[nH]c3c(=O)n(CCC(=O)NCCNc4cccc(C(F)(F)F)c4)cnc3c2c1` [Compound 89, 3-(8-methyl-4-oxo-4,5-dihydro-3H-pyrimido[5,4-b]indol-3-yl)-N-(2-((3-(trifluoromethyl)phenyl)amino)ethyl)propanamide]: the Emax (read-out: Emax) is 132%.
Compound `Cc1ccc2[nH]c3c(=O)n(CCC(=O)N(C)CCNc4cccc(C(F)(F)F)c4)cnc3c2c1` [Compound 91, N-methyl-3-(8-methyl-4-oxo-4,5-dihydro-3H-pyrimido[5,4-b]indol-3-yl)-N-(2-((3-(trifluoromethyl)phenyl)amino)ethyl)propanamide] came in with an EC50 of 3720 nM. Also, the Emax (read-out: Emax) was 140%.
Compound `Cc1ccc2[nH]c3c(=O)n(CCC(=O)N(C)CCN(C)c4cccc(C(F)(F)F)c4)cnc3c2c1` [Compound 92, N-methyl-N-(2-(methyl(3-(trifluoromethyl)phenyl)amino)ethyl)-3-(8-methyl-4-oxo-4,5-dihydro-3H-pyrimido[5,4-b]indol-3-yl)propanamide] had an EC50 of 3560 nM. In addition, the maximal effect (Emax) (read-out: Emax) is 160%.
As to `Cc1ccc2[nH]c3c(=O)n(CCC(=O)NCCN(C)c4cccc(C(F)(F)F)c4)cnc3c2c1` [Compound 93, N-(2-(methyl(3-(trifluoromethyl)phenyl)amino)ethyl)-3-(8-methyl-4-oxo-4,5-dihydro-3H-pyrimido[5,4-b]indol-3-yl)propanamide], the Emax (read-out: Emax) is 192%.
As to `Cc1ccc2[nH]c3c(=O)n(CCC(=O)NCc4cccc(C(F)(F)F)c4)cnc3c2c1` [Compound 97], it took 1010 nM to reach a half-maximal effect (EC50). Besides, where the note is “read-out: Emax”, the Emax was 178%.
